Holding throughout (type): binding
The target in one assay is T1, JAK2 (Homo sapiens, UniProt O60674).
T1 construct: endogenous in cells; host or cells: Molt4 (ATCC CRL-1582) and Ramos (ATCC CRL-1596), mixed lysate 1:2
The assay can be described thus: Kinobeads assay, JAK2. The conditions noted are these: mixed Molt4/Ramos lysate, read-out: Inhibition values (IC50) JAK2. In short, it runs like this:
(§1)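 IC50s come from capture competition: compound at various concentrations versus an immobilized aminopyrido-pyrimidine ligand for kinases in 1:2 Molt4/Ramos lysate (10 mg/mL), 3 h in a cold room. Captured JAK-family kinases were measured by specific-antibody dot blot with Odyssey infrared detection.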

In a further assay the target is T2, JAK3 (Homo sapiens, UniProt P52333).
T2 construct: endogenous in cells; host or cells: Molt4 (ATCC CRL-1582) and Ramos (ATCC CRL-1596), mixed lysate 1:2
T2 sequence (P52333 1-1124): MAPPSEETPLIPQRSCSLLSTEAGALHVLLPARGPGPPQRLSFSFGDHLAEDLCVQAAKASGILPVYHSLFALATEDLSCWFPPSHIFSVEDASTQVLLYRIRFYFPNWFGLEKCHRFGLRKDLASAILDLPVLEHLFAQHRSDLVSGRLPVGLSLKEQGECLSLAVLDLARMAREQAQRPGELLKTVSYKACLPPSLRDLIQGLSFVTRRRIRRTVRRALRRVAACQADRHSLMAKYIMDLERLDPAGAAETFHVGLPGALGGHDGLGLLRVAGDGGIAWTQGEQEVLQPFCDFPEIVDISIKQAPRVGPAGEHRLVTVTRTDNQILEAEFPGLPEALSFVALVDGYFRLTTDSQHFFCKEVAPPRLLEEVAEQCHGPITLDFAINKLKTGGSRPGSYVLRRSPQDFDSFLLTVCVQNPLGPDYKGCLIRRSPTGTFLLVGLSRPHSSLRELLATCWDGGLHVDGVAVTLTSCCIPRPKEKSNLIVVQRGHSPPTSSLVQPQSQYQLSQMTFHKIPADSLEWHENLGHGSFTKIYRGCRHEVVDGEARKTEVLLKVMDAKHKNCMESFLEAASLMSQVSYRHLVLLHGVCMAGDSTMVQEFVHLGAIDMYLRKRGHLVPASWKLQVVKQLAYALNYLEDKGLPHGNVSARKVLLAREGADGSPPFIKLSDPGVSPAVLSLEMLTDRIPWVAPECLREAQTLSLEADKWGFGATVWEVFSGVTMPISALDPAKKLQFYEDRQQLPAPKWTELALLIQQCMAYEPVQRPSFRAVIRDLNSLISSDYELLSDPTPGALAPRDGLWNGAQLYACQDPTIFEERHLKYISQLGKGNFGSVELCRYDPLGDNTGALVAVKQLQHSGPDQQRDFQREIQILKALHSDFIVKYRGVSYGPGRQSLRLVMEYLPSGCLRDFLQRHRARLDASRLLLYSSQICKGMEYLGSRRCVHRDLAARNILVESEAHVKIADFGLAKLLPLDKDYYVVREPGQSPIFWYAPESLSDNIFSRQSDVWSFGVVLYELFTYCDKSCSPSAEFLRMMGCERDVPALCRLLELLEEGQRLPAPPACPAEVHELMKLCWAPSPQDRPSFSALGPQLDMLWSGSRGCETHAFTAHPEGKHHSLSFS
Briefly: Kinobeads assay, JAK3. Particulars: mixed Molt4/Ramos lysate, read-out: Inhibition values (IC50) JAK3. Put shortly: as §1

The next assay has as its target T3, TYK2 (Homo sapiens, UniProt P29597).
T3 construct: endogenous in cells; host or cells: Molt4 (ATCC CRL-1582) and Ramos (ATCC CRL-1596), mixed lysate 1:2
The assay can be described thus: Kinobeads assay, TYK2. Particulars: mixed Molt4/Ramos lysate, read-out: Inhibition values (IC50) TYK2. Put shortly: as §1

By IC50 is commonly meant the concentration at which inhibition is half-maximal.

T1 sequence (O60674 whole entry): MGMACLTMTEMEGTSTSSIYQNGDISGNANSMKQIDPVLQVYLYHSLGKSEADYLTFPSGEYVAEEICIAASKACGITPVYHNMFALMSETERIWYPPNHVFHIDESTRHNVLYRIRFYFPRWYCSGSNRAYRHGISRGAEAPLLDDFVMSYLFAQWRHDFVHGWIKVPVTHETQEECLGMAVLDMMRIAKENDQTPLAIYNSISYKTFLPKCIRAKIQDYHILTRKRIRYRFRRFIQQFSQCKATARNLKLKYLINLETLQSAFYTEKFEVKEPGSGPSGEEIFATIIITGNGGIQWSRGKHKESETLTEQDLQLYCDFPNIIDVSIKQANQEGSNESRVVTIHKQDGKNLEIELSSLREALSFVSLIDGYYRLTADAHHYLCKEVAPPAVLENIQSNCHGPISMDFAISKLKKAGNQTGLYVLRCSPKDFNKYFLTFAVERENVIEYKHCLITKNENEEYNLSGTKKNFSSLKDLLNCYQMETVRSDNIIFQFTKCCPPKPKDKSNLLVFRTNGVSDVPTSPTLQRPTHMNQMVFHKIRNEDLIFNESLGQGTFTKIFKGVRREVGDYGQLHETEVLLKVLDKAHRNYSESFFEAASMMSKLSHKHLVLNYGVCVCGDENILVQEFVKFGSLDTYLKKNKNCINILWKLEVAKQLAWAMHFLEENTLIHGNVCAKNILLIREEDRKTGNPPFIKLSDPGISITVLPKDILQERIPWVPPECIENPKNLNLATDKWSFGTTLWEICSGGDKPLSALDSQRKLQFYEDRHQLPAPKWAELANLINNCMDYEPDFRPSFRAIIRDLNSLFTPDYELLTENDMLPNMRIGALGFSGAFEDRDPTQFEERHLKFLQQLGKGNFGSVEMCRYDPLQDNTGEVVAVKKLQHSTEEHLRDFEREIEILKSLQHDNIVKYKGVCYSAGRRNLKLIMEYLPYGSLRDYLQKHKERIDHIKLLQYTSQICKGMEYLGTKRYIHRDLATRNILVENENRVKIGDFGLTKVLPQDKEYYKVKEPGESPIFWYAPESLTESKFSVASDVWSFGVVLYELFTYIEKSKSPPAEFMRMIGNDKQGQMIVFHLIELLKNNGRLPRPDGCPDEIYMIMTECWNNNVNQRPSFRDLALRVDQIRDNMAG
T3 sequence (P29597 whole entry): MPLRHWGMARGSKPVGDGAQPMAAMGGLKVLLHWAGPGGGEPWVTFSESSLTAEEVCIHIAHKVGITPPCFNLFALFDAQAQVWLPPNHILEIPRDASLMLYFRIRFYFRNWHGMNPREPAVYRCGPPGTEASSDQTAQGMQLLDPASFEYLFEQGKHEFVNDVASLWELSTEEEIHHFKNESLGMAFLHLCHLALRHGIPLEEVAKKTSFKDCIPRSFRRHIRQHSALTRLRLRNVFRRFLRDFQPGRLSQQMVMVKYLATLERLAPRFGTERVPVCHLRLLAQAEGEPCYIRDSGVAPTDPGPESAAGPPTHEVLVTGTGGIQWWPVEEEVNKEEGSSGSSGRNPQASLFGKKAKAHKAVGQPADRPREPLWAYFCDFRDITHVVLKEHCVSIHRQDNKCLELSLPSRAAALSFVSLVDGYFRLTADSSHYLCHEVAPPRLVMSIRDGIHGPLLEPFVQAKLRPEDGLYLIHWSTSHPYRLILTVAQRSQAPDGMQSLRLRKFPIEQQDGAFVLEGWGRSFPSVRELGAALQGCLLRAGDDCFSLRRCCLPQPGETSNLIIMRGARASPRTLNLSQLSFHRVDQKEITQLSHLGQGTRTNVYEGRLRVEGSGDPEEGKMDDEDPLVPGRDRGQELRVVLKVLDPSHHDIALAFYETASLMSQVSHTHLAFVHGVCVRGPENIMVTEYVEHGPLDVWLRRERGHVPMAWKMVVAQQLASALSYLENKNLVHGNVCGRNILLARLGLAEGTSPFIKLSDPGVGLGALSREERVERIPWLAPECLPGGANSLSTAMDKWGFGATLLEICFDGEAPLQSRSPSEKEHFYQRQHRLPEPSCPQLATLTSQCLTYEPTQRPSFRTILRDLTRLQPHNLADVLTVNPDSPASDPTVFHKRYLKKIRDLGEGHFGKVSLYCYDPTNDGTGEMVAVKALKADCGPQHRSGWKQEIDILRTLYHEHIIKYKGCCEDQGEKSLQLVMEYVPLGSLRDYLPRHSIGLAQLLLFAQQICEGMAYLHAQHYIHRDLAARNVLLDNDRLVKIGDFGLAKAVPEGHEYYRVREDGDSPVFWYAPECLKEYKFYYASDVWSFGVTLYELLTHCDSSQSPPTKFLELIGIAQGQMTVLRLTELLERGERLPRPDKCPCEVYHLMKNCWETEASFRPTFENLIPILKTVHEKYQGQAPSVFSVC

Regarding `CCNC(=O)[C@@H](Nc1nc(Nc2cnn(C)c2)ncc1Cl)c1ccccc1` [Compound 28], the results for the IC50 on JAK2, at JAK3 and on TYK2 were at least 10 µM, below 0.1 µM and 1 to 10 µM, respectively.
For `COCCNC(=O)[C@@H](Nc1nc(Nc2cnn(C)c2)ncc1Cl)c1ccccc1` [Compound 29], the IC50 is 1 to 10 µM at JAK2, below 0.1 µM on JAK3 and 1 to 10 µM on TYK2.
As for `CN(C)C(=O)Cn1cc(Nc2ncc(Cl)c(N[C@H](CO)c3ccccc3)n2)cn1` [Compound 30], the IC50 at JAK2 is 1 to 10 µM; on JAK3, below 0.1 µM; at TYK2, 0.1 to 1 µM.
Regarding `CNC(=O)Cn1cc(Nc2ncc(Cl)c(NC(CO)c3c(F)cccc3F)n2)cn1` (stereo not drawn) [Compound 31], the IC50 at JAK2 was 1 to 10 µM; on JAK3, below 0.1 µM; at TYK2 it was 1 to 10 µM.
Turning to `CNC(=O)Cn1cc(Nc2ncc(Cl)c(NC(CO)c3cccc(F)c3)n2)cn1` (stereo not drawn) [Compound 32], the results for the IC50 on JAK2, at JAK3 and at TYK2 were 1 to 10 µM, below 0.1 µM and 1 to 10 µM, respectively.
For the compound `CNC(=O)Cn1cc(Nc2ncc(Cl)c(NC(CO)c3ccccc3F)n2)cn1` (stereo not drawn) [Compound 33], the figures for the IC50 at JAK2, at JAK3 and on TYK2 were 1 to 10 µM, below 0.1 µM and 1 to 10 µM, respectively.
On to `Cn1cc(Nc2ncc(Cl)c(N[C@H](C(=O)N3CCCC3)c3ccccc3)n2)cn1` [Compound 34], for which the IC50 is 1 to 10 µM at JAK2, 0.1 to 1 µM on JAK3 and at least 10 µM at TYK2.
With `O=C([C@@H](Nc1nc(Nc2cnn(CCO)c2)ncc1Cl)c1ccccc1)N1CCCC1` [Compound 35], the half-maximal inhibitory concentration (IC50) on JAK2 fell in the range of 1 to 10 µM; at JAK3 it was 0.1 to 1 µM; on TYK2, 1 to 10 µM.
Consider `OCCn1cc(Nc2ncc(Cl)c(NC(CO)c3ccccc3F)n2)cn1` (stereo not drawn) [Compound 36], for which the IC50 at JAK2 is 1 to 10 µM; on JAK3, below 0.1 µM; on TYK2 it was 0.1 to 1 µM.
With `Cn1cc(Nc2ncc(Cl)c(NC(CO)c3ccccc3F)n2)cn1` (stereo not drawn) [Compound 37], the IC50 on JAK2 was 1 to 10 µM; on JAK3, below 0.1 µM; at TYK2 it was 1 to 10 µM.
In the case of `CC(O)Cn1cc(Nc2ncc(Cl)c(NC(CO)c3cccc(F)c3)n2)cn1` (stereo not drawn) [Compound 38], the IC50 on JAK2 was 1 to 10 µM; at JAK3, below 0.1 µM; on TYK2 it was 1 to 10 µM.
Regarding `OCCn1cc(Nc2ncc(Cl)c(NC(CO)c3cccc(F)c3)n2)cn1` (stereo not drawn) [Compound 39], the IC50 on JAK2 is 0.1 to 1 µM; at JAK3, below 0.1 µM; on TYK2, 0.1 to 1 µM.
On to `Cn1cc(Nc2ncc(Cl)c(NC(CO)c3cccc(F)c3)n2)cn1` (stereo not drawn) [Compound 40], for which the values for the IC50 on JAK2, at JAK3 and at TYK2 were 1 to 10 µM, below 0.1 µM and 1 to 10 µM, respectively.
As to `OCCn1ccc(Nc2ncc(Cl)c(NC(CO)c3cccc(F)c3)n2)n1` (stereo not drawn) [Compound 41], the IC50 at JAK2 is at least 10 µM; on JAK3 it was 0.1 to 1 µM; at TYK2 it was at least 10 µM.
Turning to `CC(O)Cn1cc(Nc2ncc(Cl)c(NC(CO)c3c(F)cccc3F)n2)cn1` (stereo not drawn) [Compound 42], the IC50 was 1 to 10 µM on JAK2, below 0.1 µM at JAK3 and 0.1 to 1 µM on TYK2.
Regarding `OCCn1cc(Nc2ncc(Cl)c(NC(CO)c3c(F)cccc3F)n2)cn1` (stereo not drawn) [Compound 43], the IC50 at JAK2 is 1 to 10 µM; on JAK3 it was below 0.1 µM; at TYK2, 0.1 to 1 µM.
Take `Cn1cc(Nc2ncc(Cl)c(NC(CO)c3c(F)cccc3F)n2)cn1` (stereo not drawn) [Compound 44]: the results for the IC50 at JAK2, on JAK3 and at TYK2 were 1 to 10 µM, below 0.1 µM and 1 to 10 µM, respectively.
Regarding `OCCn1ccc(Nc2ncc(Cl)c(NC(CO)c3c(F)cccc3F)n2)n1` (stereo not drawn) [Compound 45], the values for the IC50 on JAK2, on JAK3 and at TYK2 were at least 10 µM, 0.1 to 1 µM and 1 to 10 µM, respectively.
As for `Cn1cc(Nc2ncc(Cl)c(N[C@H](C(=O)NCCO)c3ccccc3)n2)cn1` [Compound 46], the IC50 was 1 to 10 µM at JAK2, below 0.1 µM on JAK3 and 1 to 10 µM on TYK2.
On to `O=C(NCCO)[C@@H](Nc1nc(Nc2cnn(CCO)c2)ncc1Cl)c1ccccc1` [Compound 47], for which the IC50 is 1 to 10 µM on JAK2, below 0.1 µM at JAK3 and 1 to 10 µM at TYK2.
With `COCCNC(=O)[C@@H](Nc1nc(Nc2cnn(CCO)c2)ncc1Cl)c1ccccc1` [Compound 48], the IC50 on JAK2 is 1 to 10 µM; at JAK3, below 0.1 µM; on TYK2, 1 to 10 µM.
For the compound `Cn1cc(Nc2ncc(Cl)c(N[C@H](C(=O)N3CCCCC3)c3ccccc3)n2)cn1` [Compound 49], the IC50 is at least 10 µM on JAK2, 0.1 to 1 µM at JAK3 and at least 10 µM at TYK2.
`OCCn1ccc(Nc2ncc(Cl)c(NC(CO)c3ccccc3F)n2)n1` (stereo not drawn) [Compound 50]: the IC50 on JAK2 was at least 10 µM; at JAK3 it was 0.1 to 1 µM; on TYK2, at least 10 µM.
Consider `O=C([C@@H](Nc1nc(Nc2cnn(CCO)c2)ncc1Cl)c1ccccc1)N1CCCCC1` [Compound 51], for which the IC50 was at least 10 µM on JAK2, 0.1 to 1 µM on JAK3 and at least 10 µM at TYK2.
For the compound `Cn1cc(Nc2ncc(Cl)c(NC(CO)c3cccc(Br)c3)n2)cn1` (stereo not drawn) [Compound 52], the IC50 was at least 10 µM on JAK2, 0.1 to 1 µM at JAK3 and 1 to 10 µM on TYK2.
In the case of `Cn1cc(Nc2ncc(Cl)c(NC(CO)c3cccc(N4CC5(COC5)C4)c3)n2)cn1` (stereo not drawn) [Compound 53], the figures for the IC50 at JAK2, on JAK3 and on TYK2 were at least 10 µM, 0.1 to 1 µM and at least 10 µM, respectively.
As to `Cn1cc(Nc2ncc(Cl)c(N[C@@H](CO)c3ccccc3)n2)cn1` [Compound 54], the IC50 at JAK2 is at least 10 µM; at JAK3, 1 to 10 µM; on TYK2 it was 1 to 10 µM.
Turning to `COC[C@@H](Nc1nc(Nc2cnn(C)c2)ncc1Cl)c1ccccc1` [Compound 55], the IC50 on JAK2 is at least 10 µM; at JAK3, 0.1 to 1 µM; at TYK2, at least 10 µM.
Turning to `NC(=O)Cn1cc(Nc2ncc(Cl)c(N[C@H](CO)c3ccccc3)n2)cn1` [Compound 56], the IC50 was 1 to 10 µM on JAK2, below 0.1 µM at JAK3 and 0.1 to 1 µM on TYK2.
In the case of `CC(C)(O)Cn1cc(Nc2ncc(Cl)c(NC(CO)c3ccccc3F)n2)cn1` (stereo not drawn) [Compound 57], the IC50 on JAK2 is at least 10 µM; at JAK3, below 0.1 µM; on TYK2, 1 to 10 µM.
Turning to `Cn1cc(Nc2ncc(Cl)c(N[C@H](CO)c3ccccc3F)n2)cn1` [Compound 58], the IC50 at JAK2 was 1 to 10 µM; on JAK3 it was below 0.1 µM; on TYK2 it was 1 to 10 µM.
On to `Cn1cc(Nc2ncc(Cl)c(N[C@H](C(=O)NC3CCCC3)c3ccccc3)n2)cn1` [Compound 59], for which the figures for the IC50 at JAK2, at JAK3 and on TYK2 were at least 10 µM, 0.1 to 1 µM and at least 10 µM, respectively.
Turning to `O=C(NC1CCCC1)[C@@H](Nc1nc(Nc2cnn(CCO)c2)ncc1Cl)c1ccccc1` [Compound 60], the IC50 is at least 10 µM at JAK2, 0.1 to 1 µM on JAK3 and 1 to 10 µM on TYK2.
As for `CC(C)(O)Cn1cc(Nc2ncc(Cl)c(NC(CO)c3cccc(F)c3)n2)cn1` (stereo not drawn) [Compound 61], the IC50 was 1 to 10 µM at JAK2, below 0.1 µM at JAK3 and 1 to 10 µM at TYK2.
Turning to `CC(C)(O)Cn1cc(Nc2ncc(Cl)c(NC(CO)c3c(F)cccc3F)n2)cn1` (stereo not drawn) [Compound 62], the results for the IC50 on JAK2, at JAK3 and on TYK2 were at least 10 µM, below 0.1 µM and 1 to 10 µM, respectively.

The record behind these values is US20140179664A1, “Heterocyclyl Pyrimidine Analogues As JAK Inhibitors” (Cellzome Limited, priority 2011, published 2014).
